Numbers after ± are expanded uncertainties.
Test: xn = mol fraction of the nth substance listed
Conditions: 101 kPa, Liquid; for viscosity: Concentric cylinders viscometry; for mass density: Vibrating tube method

COC(C)(C)C [2-methoxy-2-methylpropane] + CCCCCO
Conditions | mass density, 293.15 K [kg/m3] | mass density, 298.15 K [kg/m3] | viscosity, 293.15 K [mPa·s] | viscosity, 298.15 K [mPa·s]
x1 = 0.0105 | 813.89 ± 0.29 | 810.25 ± 0.29 | 3.895 ± 0.16 | 3.372 ± 0.14
x1 = 0.0197 | 813.34 ± 0.29 | 809.68 ± 0.29 | 3.775 ± 0.15 | 3.273 ± 0.13
x1 = 0.0321 | 812.56 ± 0.29 | 808.89 ± 0.29 | 3.615 ± 0.15 | 3.143 ± 0.13
x1 = 0.0401 | 812.06 ± 0.29 | 808.37 ± 0.29 | 3.516 ± 0.14 | 3.059 ± 0.13
x1 = 0.0506 | 811.39 ± 0.29 | 807.69 ± 0.29 | 3.394 ± 0.14 | 2.958 ± 0.12
x1 = 0.0595 | 810.83 ± 0.29 | 807.12 ± 0.29 | 3.292 ± 0.14 | 2.872 ± 0.12
x1 = 0.0699 | 810.18 ± 0.29 | 806.45 ± 0.29 | 3.176 ± 0.13 | 2.778 ± 0.11
x1 = 0.0811 | 809.49 ± 0.28 | 805.73 ± 0.28 | 3.061 ± 0.13 | 2.683 ± 0.11
x1 = 0.0901 | 808.93 ± 0.28 | 805.14 ± 0.28 | 2.97 ± 0.12 | 2.606 ± 0.11
x1 = 0.1042 | 808.03 ± 0.28 | 804.23 ± 0.28 | 2.841 ± 0.12 | 2.495 ± 0.1
x1 = 0.1506 | 805.02 ± 0.28 | 801.2 ± 0.28 | 2.45 ± 0.1 | 2.168 ± 0.089
x1 = 0.2078 | 801.27 ± 0.27 | 797.36 ± 0.27 | 2.058 ± 0.084 | 1.837 ± 0.075
x1 = 0.252 | 798.32 ± 0.27 | 794.34 ± 0.27 | 1.809 ± 0.074 | 1.619 ± 0.066
x1 = 0.301 | 795.01 ± 0.26 | 790.96 ± 0.26 | 1.574 ± 0.064 | 1.418 ± 0.058
x1 = 0.3492 | 791.65 ± 0.26 | 787.57 ± 0.26 | 1.387 ± 0.057 | 1.254 ± 0.051
x1 = 0.3996 | 788.14 ± 0.26 | 783.99 ± 0.26 | 1.207 ± 0.049 | 1.098 ± 0.045
x1 = 0.4577 | 784 ± 0.25 | 779.75 ± 0.25 | 1.042 ± 0.043 | 0.953 ± 0.039
x1 = 0.4985 | 781.06 ± 0.25 | 776.76 ± 0.25 | 0.9442 ± 0.039 | 0.8668 ± 0.036
x1 = 0.5512 | 777.21 ± 0.25 | 772.8 ± 0.25 | 0.8364 ± 0.034 | 0.7702 ± 0.032
x1 = 0.5999 | 773.61 ± 0.25 | 769.09 ± 0.25 | 0.7504 ± 0.031 | 0.6941 ± 0.029
x1 = 0.6506 | 769.72 ± 0.24 | 765.16 ± 0.25 | 0.6719 ± 0.028 | 0.6222 ± 0.026
x1 = 0.6986 | 766.04 ± 0.24 | 761.39 ± 0.24 | 0.606 ± 0.025 | 0.5627 ± 0.023
x1 = 0.7451 | 762.49 ± 0.24 | 757.72 ± 0.24 | 0.5517 ± 0.023 | 0.5167 ± 0.021
x1 = 0.7976 | 758.12 ± 0.24 | 753.3 ± 0.24 | 0.4971 ± 0.021 | 0.4653 ± 0.019
x1 = 0.8534 | 753.55 ± 0.24 | 748.61 ± 0.24 | 0.4455 ± 0.019 | 0.4172 ± 0.017
x1 = 0.898 | 749.74 ± 0.24 | 744.73 ± 0.24 | 0.4101 ± 0.017 | 0.3855 ± 0.016
x1 = 0.9098 | 748.75 ± 0.24 | 743.7 ± 0.24 | 0.4017 ± 0.017 | 0.3772 ± 0.016
x1 = 0.9195 | 747.92 ± 0.24 | 742.85 ± 0.24 | 0.3954 ± 0.017 | 0.3701 ± 0.016
x1 = 0.9289 | 747.1 ± 0.24 | 742.01 ± 0.24 | 0.388 ± 0.016 | 0.3658 ± 0.015
x1 = 0.9419 | 745.96 ± 0.24 | 740.85 ± 0.24 | 0.3807 ± 0.016 | 0.3564 ± 0.015
x1 = 0.9495 | 745.29 ± 0.24 | 740.17 ± 0.24 | 0.3752 ± 0.016 | 0.354 ± 0.015
x1 = 0.9594 | 744.4 ± 0.24 | 739.28 ± 0.24 | 0.3682 ± 0.015 | 0.3458 ± 0.015
x1 = 0.9688 | 743.56 ± 0.24 | 738.42 ± 0.24 | 0.3623 ± 0.015 | 0.3405 ± 0.014
x1 = 0.9792 | 742.63 ± 0.24 | 737.46 ± 0.24 | 0.3563 ± 0.015 | 0.3352 ± 0.014
x1 = 0.9902 | 741.63 ± 0.24 | 736.44 ± 0.24 | 0.3533 ± 0.015 | 0.3291 ± 0.014

Source: the NIST ThermoML archive (doi:10.1016/j.jct.2011.02.018)
